Experimental data as given in patent US20260035452A1 (THE UNIVERSITY OF BIRMINGHAM, priority 2022, published 2026).
No end group written: not given here.

Tests used:
[1] = tested on: dorsal air pouch of mice; test: In vivo air pouch model; conditions: 1 μg/mice into air pouch, 24 h
Protocol: FIG. 3: Mice were treated with IL-17 vehicle (Ctrl), IL-17 (1 μg/mice) alone (IL-17) or peptide (FM-0410) (1 μg/mice) and thereafter total cell number from pouches inflammatory exudates was evaluated at 24 h. Data were expressed as millions of cells for pouch and presented as means±S.D. of n=7 mice per group. Statistical analysis was conducted by one-way ANOVA followed by Bonferroni's for multiple comparisons. ^##P≤0.01, ^###P≤0.005 vs Ctrl group; *P≤0.05 vs IL-17 group.
FIG. 4: Inflammatory supernatants obtained from the pouch cavities were assayed using a Proteome Profiler Cytokine Array for Ctrl, IL-17 and FM-0410 experimental group. Densitometric analysis is presented as heatmap. Data (expressed as INT/mm2) are presented as means±S.D. of positive spots of three independent experiments run each with n=7 mice per group.
FIG. 5: Mice were treated with IL-17 vehicle (Ctrl), IL-17 (1 μg/mice), or peptide (FM-0410) (1 μg/mice) and inflammatory fluids were assayed by Elisa for IL-6. Data were expressed as pg/ml and presented as means±S.D. of n=7 mice per group. Statistical analysis was conducted by one-way ANOVA followed by Bonferroni's for multiple comparisons. ^##P≤0.01 vs CTRL group. […]
Specifically, dorsal air pouches were prepared by injection of 2.5 ml of air on day 0 and day 3 as previously described (Maione et al., 2009). […] Inflammatory exudates were collected and measured to evaluate the level of inflammatory cyto-chemokines. Cell number was determined by TC20 automated cell counter (Bio-Rad, Milan, Italy) using Bio-Rad's TC20 automated cell counter uses disposable slides, TC20 trypan blue dye (0.4% trypan blue dye w/v in 0.81% sodium chloride and 0.06% potassium phosphate dibasic solution) and a CCD camera to count cells based on the analyses of capture images (Maione et al., 2018).
Methods: The levels of IL-6 in the cellular and air pouch inflammatory supernatants at 24 h were measured using commercially available enzyme-linked immunosorbent assay kit (ELISA kit, R&D System, Milan, Italy) according to the manufacturer instructions. […]

[2] = tested on: hPBMC on cytokine-stimulated HDBEC monolayers; test: Human PBMC static adhesion / transendothelial migration assay; type: cell-based; conditions: co-treatment plus TNF-α
Protocol: FIG. 10: Human dermal blood endothelial cells (HDBEC) were treated with: IL-17 vehicle (Ctrl), IL-17 or FM-0410 (100 ng/ml), alone or in combination with TNF-α (100 U/ml) for 24 h. Cells were washed, gated in their totality and singlet before the identification of IL-17Rs (RA and RC) (A, B), ICAM (C) and VCAM (D) expression. Histogram values (expressed as MIF) indicate the total positive cells (A-D). In (E) are shown phase-contrast micrographs of confluent monolayers of untreated or treated (as reported before) HDBEC. Total adhesion (expressed as INT/mm^2, F) and % of transmigration (G) are calculated with Image Pro programme (DataCell, Finchampstead). Inflammatory supernatants from all experimental conditions were assayed by Elisa for IL-6 (H) expressed in pg/ml. Data were presented as means±S.D. of n=3 healthy donors. […]
Human PBMC transendothelial migration assay: Prior to beginning the assay, HDBEC monolayers were washed with 37° C. medium 199 (Thermo Fisher Scientific) supplemented with 0.15% w/v BSA (MilliporeSigma) to remove any residual cytokines. hPBMC (1×10^6) were co-cultured with cytokine-stimulated HDBEC monolayers at 37° C. for 20 min. […] Total hPBMC adhesion and mean percentage transmigration were calculated for each well.

Ac-LEKILVSVGATAVTPIVHHVAC [FM-0410]
cyto-chemokines profile of pouch fluid (Proteome Profiler Cytokine Array) [1]: selective upregulation in a range of mediators | level of IL-6 in pouch fluids [1]: increased level of IL-6 compared to control group | number of inflammatory leukocytes (total cell number from pouch exudates) [1]: marked increase in inflammatory infiltrates compared to control but also to IL-17-treated mice | total number of adhered hPBMC [2]: significant increase | transmigrated hPBMC [2]: significant increase
